Source: publication PMC9321718 (Pharmaceuticals, 2022)
Values after ≈ are worked out from the molar mass of the structure shown. Where two headings read alike, the source gives them in different places.

What was measured:
B. subtilis = assay: Synergy of adjuvant-MCD with Lev-MCD, growth inhibition zones in agar; assay type: cell-based, Bacillus subtilis; conditions: for D, diameter of bacterial inhibition zone surrounding Lev–MCD with APAB-MCD: Lev-MCD + X-MCD (1:2), ±0.5; for ϕLev = (D/DLev)^2: ±0.1
Method: We obtained complex formulations containing adjuvants-MCD and Lev-MCD. These complexes were referred to as enhanced Lev. The synergy effect was studied at a constant concentration of Lev and a variable concentration of an enhancer. […] Based on the D/DLev ratio, the effectiveness of cooperative antibacterial action (ϕ) of the adjuvant and Lev was calculated. The fractional inhibitory concentration (FIC) parameter was introduced: at a fixed Lev concentration, the FIC of adjuvant corresponds to the minimum fractional adjuvant concentration at which the antibacterial effect was still manifest (MICadjuvant in the presence of Lev). The fractional inhibitory concentration index (FICI) characterizes the ratio of the active Lev and adjuvant concentrations to the MIC values of these substances individually: FICI=[Lev]/MIC(Lev)[…][adjuvant]/MIC(adjuvant) (see Section 3).
The FICI was interpreted as: synergism (<0.35), additivity (0.35–0.75), indifference (0.75–1.4), or antagonism (>1.4). FICI is designed to determine the type of Lev interaction with adjuvants.
The study of the antibacterial effect of Lev and adjuvants was carried out by (a) agar diffusion test and (b) broth micro-dilution method. (a) A measured 500 µL of 100-fold culture dilution was evenly distributed over a solid nutrient medium (LB, pH 7.2) on a Petri dish. After 20 min, agar disks with a diameter of 9 mm were removed from the cups and 50 µL of the test samples were placed in the formed wells at the required concentration in a sterile PBS buffer (see Section 3.3 (2)). After 30 min, Petri dishes were placed in a 37 °C thermostat. […] Minimum inhibitory concentrations (MICs) are determined as the infimum of multiple concentrations of an antimicrobial that inhibits the visible growth of a microorganism after overnight incubation. (b) According to the standard broth micro-dilution method, 200 µL of the overnight culture (5 × 10^6 CFU) was placed into a 96 micro-titer plate wells. Then 50 µL of tested samples was added. The range of tested Lev concentration was 4–200 ng/mL, adjuvants concentration was in the range of 0.008–2 mg/mL. […] The dependence of CFU (determined by A600) on the concentration of Lev, APAB or terpenoid (briefly X) was approximated according to the Boltzmann equation (Origin software): CFU = (control CFU)/(1 + exp(([X] − MIC50)/constant value)). […] In other words, the concentration at which the ordinate value (CFU) is equal to 50 or 10% of the control sample minus the background.
The FICI was interpreted as: synergism (<0.35), additivity (0.35–0.75), indifference (0.76–1.4), or antagonism (>1.4). The essence of this expression is to calculate the average change in the effective concentration compared to MIC. Note that the most important parameter corresponds to a decrease in MIC of Lev. However, FICI is designed to determine the type of interaction Lev with adjuvants.

physchem = conditions: 22 °C, pH 6.2, water
Method: (§1) (3) Solubility of X in water C0 = [Xaq] = A/(ε · l) was determined by UV absorbance after centrifugation of samples (10 min, 10,000× g). l = 1 cm. ε—molar absorbance coefficient (Figure 1C).

[1] = Dissociation constant of complexes with HPCD by FTIR spectroscopy; assay type: physicochemical; conditions: complex with HPCD, aqueous solutions, 22 °C
Description: Changes in the microenvironment of chemical bonds, functional groups, protonation/deprotonation, or the formation of non-valent interactions between the receptor and the ligand (in this case, the formation of guest–host inclusion complexes of CD with EG and apiol molecules) leads to a change in the intensity or position of characteristic peaks in the IR spectra. […] The above-indicated peaks in the IR spectra are composite which was visually confirmed by the changes in the shape of peaks and even the appearance of shoulders when the APAB was turned on in the CD cavity. To separate the complex peaks into components, increase sensitivity and obtain more detailed information, the differentiation method was used. The shifts of minima/maxima of the second derivative of spectra (Figure 2B) in allyl ν(C=C) and aromatic ν(C–C) regions were the most prominent. […]
ATR-FTIR spectra of samples’ solutions (point 3.3.1) were recorded using a Bruker Tensor 27 spectrometer equipped with a liquid nitrogen cooled MCT (mercury cadmium telluride) detector. […] ATR-FTIR spectra of solid samples placed on KBr glass were recorded using a Bruker Lumos II IR microscope in the region from 700 to 4000 cm^−1 with 1 cm^−1 spectral resolution with scanning in the area on average 1 × 1 microns. […]

B. subtilis (NCIB 8054) = assay: Agar diffusion test, MIC; assay type: cell-based, Bacillus subtilis; conditions: Bacillus subtilis
Method: The strains used in this study were Escherichia coli (NCIB 12210) and Bacillus subtilis (NCIB 8054) from National Resource Center All-Russian collection of industrial microorganisms SIC “Kurchatov Institute”). The culture was cultivated for 18–20 h at 37 °C to CFU ≈ 5 × 10^6 – 8 × 10^6 (determined by A600) in liquid nutrient medium Luria–Bertani (pH 7.2): E. coli—without stirring, B. subtilis—with stirring 180 rpm.
The study of the antibacterial effect of Lev and adjuvants was carried out by (a) agar diffusion test and (b) broth micro-dilution method. (a) A measured 500 µL of 100-fold culture dilution was evenly distributed over a solid nutrient medium (LB, pH 7.2) on a Petri dish. After 20 min, agar disks with a diameter of 9 mm were removed from the cups and 50 µL of the test samples were placed in the formed wells at the required concentration in a sterile PBS buffer (see Section 3.3 (2)). After 30 min, Petri dishes were placed in a 37 °C thermostat. After 24 h, the diameters of the growth inhibition zones were measured. Minimum inhibitory concentrations (MICs) are determined as the infimum of multiple concentrations of an antimicrobial that inhibits the visible growth of a microorganism after overnight incubation. (b) According to the standard broth micro-dilution method, 200 µL of the overnight culture (5 × 10^6 CFU) was placed into a 96 micro-titer plate wells. Then 50 µL of tested samples was added. The range of tested Lev concentration was 4–200 ng/mL, adjuvants concentration was in the range of 0.008–2 mg/mL. Optical density measurements at 600 nm were taken at various times (0, 3, and 18 h) to determine the number of cells. The dependence of CFU (determined by A600) on the concentration of Lev, APAB or terpenoid (briefly X) was approximated according to the Boltzmann equation (Origin software): CFU = (control CFU)/(1 + exp(([X] − MIC50)/constant value)). MIC50 and MIC90 are defined as concentrations at which the inhibition of bacterial growth by 50 and 90% is noticeable, respectively. In other words, the concentration at which the ordinate value (CFU) is equal to 50 or 10% of the control sample minus the background.

[2] = Solubility of X in water and in the presence of MCD/HPCD (UV absorbance)
Method: as §1

[3] = B. subtilis, CLev 0.4 μg/mL, ±15%
[4] = B. subtilis, CLev 0.7 μg/mL, ±15%
[5] = B. subtilis, CLev 1.5 μg/mL, ±15%
[6] = NCIB8054, B. subtilis 7 × 10^6 CFU, agar diffusion test, inclusion complexes with MCD, LB pH 7.2, 37 °C, 20 h, read-out: MIC

| Structure (SMILES) | FICadjuvant (B. subtilis; B. subtilis, CLev 0.4 μg/mL) | Type of Interaction between Lev and X (B. subtilis; B. subtilis, CLev 0.4 μg/mL) | D, diameter of bacterial inhibition zone surrounding Lev–MCD with APAB-MCD (B. subtilis; B. subtilis, CLev 0.4 μg/mL) | ϕLev = (D/DLev)^2 (B. subtilis; B. subtilis, CLev 0.4 μg/mL) | FICI (B. subtilis; [3]) | FICadjuvant (B. subtilis; B. subtilis, CLev 0.7 μg/mL) | Type of Interaction between Lev and X (B. subtilis; B. subtilis, CLev 0.7 μg/mL) | D, diameter of bacterial inhibition zone surrounding Lev–MCD with APAB-MCD (B. subtilis; B. subtilis, CLev 0.7 μg/mL) | ϕLev = (D/DLev)^2 (B. subtilis; B. subtilis, CLev 0.7 μg/mL) | FICI (B. subtilis; [4]) | FICadjuvant (B. subtilis; B. subtilis, CLev 1.5 μg/mL) | Type of Interaction between Lev and X (B. subtilis; B. subtilis, CLev 1.5 μg/mL) | D, diameter of bacterial inhibition zone surrounding Lev–MCD with APAB-MCD (B. subtilis; B. subtilis, CLev 1.5 μg/mL) | ϕLev = (D/DLev)^2 (B. subtilis; B. subtilis, CLev 1.5 μg/mL) | FICI (B. subtilis; [5]) | solubility (physchem) | Kd [1] | MIC (B. subtilis (NCIB 8054); [6]) | FICI (B. subtilis; B. subtilis, with Lev) | further results |
| --- | --- | --- | --- | --- | --- | --- | --- | --- | --- | --- | --- | --- | --- | --- | --- | --- | --- | --- | --- | --- |
| C=CCc1ccc(O)c(OC)c1 [Eugenol, 4-allyl-2-methoxyphenol] | 0.10 ± 0.01 mg/mL | Synergism (synergism (<0.35)) | 14.5 mm | 1.5 | 0.16 | 0.2 ± 0.02 mg/mL | Additivity (additivity (0.35–0.75)) | 16 mm | 1.2 | 0.56 | 0.10 ± 0.01 mg/mL | Additivity (additivity (0.35–0.75)) | 19 mm | 1.2 | 0.60 | 8200 ± 200 µM (≈ 1350 µg/mL) | 4.1 ± 0.3 mM | 1000 µg/mL (≈ 6.09 mM) |  | type of interaction with Lev (B. subtilis; Gram-positive cells (B. subtilis)): additivity |
| CC1CCC(C(C)C)C(O)C1 (centres unmarked) [Menthol] |  |  |  |  |  |  |  |  |  |  |  |  |  |  |  | 230 ± 40 µM (≈ 35.9 µg/mL) |  | 2600 µg/mL (≈ 16.6 mM) | 0.08–0.11 | FICadjuvant (B. subtilis; B. subtilis, CLev 0.5 μg/mL): 0.17 ± 0.01 mg/mL; Type of Interaction between Lev and X (B. subtilis; B. subtilis, CLev 0.5 μg/mL): Synergism (synergism (<0.35)); D, diameter of bacterial inhibition zone surrounding Lev–MCD with APAB-MCD (B. subtilis; B. subtilis, CLev 0.5 μg/mL): 18.5 mm; ϕLev = (D/DLev)^2 (B. subtilis; B. subtilis, CLev 0.5 μg/mL): 2.4; FICI (B. subtilis; B. subtilis, CLev 0.5 μg/mL, ±15%): 0.11; FICadjuvant (B. subtilis; B. subtilis, CLev 1 μg/mL): 0.17 ± 0.01 mg/mL; Type of Interaction between Lev and X (B. subtilis; B. subtilis, CLev 1 μg/mL): Synergism (synergism (<0.35)); D, diameter of bacterial inhibition zone surrounding Lev–MCD with APAB-MCD (B. subtilis; B. subtilis, CLev 1 μg/mL): 18 mm; ϕLev = (D/DLev)^2 (B. subtilis; B. subtilis, CLev 1 μg/mL): 1.3; FICI (B. subtilis; B. subtilis, CLev 1 μg/mL, ±15%): 0.23; efficiency parameter ϕ (B. subtilis; B. subtilis, adjuvant-MCD with Lev-MCD): 2.4; MIC (B. subtilis (NCIB 8054); NCIB8054, B. subtilis, agar diffusion test, read-out: MIC): 2.6 µg/mL (≈ 0.0166 mM) |
| C=CCc1ccc2c(c1)OCO2 [Safrole] | 0.17 ± 0.02 mg/mL | Synergism (synergism (<0.35)) | 14 mm | 1.4 | 0.08 | 0.33 ± 0.03 mg/mL | Synergism (synergism (<0.35)) | 16 mm | 1.1 | 0.28 | 0.15 ± 0.02 mg/mL | Synergism (synergism (<0.35)) | 20 mm | 1.4 | 0.27 | 800 ± 100 µM (≈ 130 µg/mL) |  | 3900 µg/mL (≈ 24 mM) | 0.08–0.11 | increased solubility of APAB, times ([2]; APAB–MCD molar ratio 1:5 vs water without MCD, UV): 25 times |
| C=CCc1cc(OC)c2c(c1OC)OCO2 [Apiol] |  |  |  |  |  |  |  |  |  |  |  |  |  |  |  |  | 4 ± 0.3 mM |  |  | solubility ([2]; 22 °C, pH 6.2, water): 130 ± 10 µM; MIC (B. subtilis (NCIB 8054); NCIB8054, 20 h, pH 7.2): 5300 µg/mL (≈ 23.8 mM) |
